# Test results reported in patent publication US20030086820A1 (priority 2001, published 2003).
# Where two headings read alike, the source gives them in different places.
# Assays:
# prion protein (PRP^SC) = prion protein (PRP^SC) (Homo sapiens, UniProt P04156)
# BSA protein = BSA protein (Bos taurus, UniProt P02769)
# [1] = system: ileal fluid dependent organism (IFDO)
# BSA protein, sequence (P02769 25-607 limits assumed): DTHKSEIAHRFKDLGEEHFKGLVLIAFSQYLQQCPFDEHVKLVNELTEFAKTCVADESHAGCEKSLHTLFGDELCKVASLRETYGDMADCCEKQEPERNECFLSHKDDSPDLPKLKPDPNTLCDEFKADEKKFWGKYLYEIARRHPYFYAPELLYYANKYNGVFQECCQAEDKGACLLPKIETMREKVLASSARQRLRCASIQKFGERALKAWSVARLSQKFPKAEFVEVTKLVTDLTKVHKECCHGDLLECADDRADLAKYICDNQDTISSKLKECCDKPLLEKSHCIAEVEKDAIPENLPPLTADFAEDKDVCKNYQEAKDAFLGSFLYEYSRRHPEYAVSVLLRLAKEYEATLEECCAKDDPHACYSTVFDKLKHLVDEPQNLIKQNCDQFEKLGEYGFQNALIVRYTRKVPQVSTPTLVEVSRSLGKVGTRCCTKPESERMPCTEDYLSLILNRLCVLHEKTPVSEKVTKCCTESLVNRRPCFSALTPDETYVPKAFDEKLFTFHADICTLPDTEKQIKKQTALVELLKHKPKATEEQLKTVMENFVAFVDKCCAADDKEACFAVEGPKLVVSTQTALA
structure (smiles),measurement,setting,value
"OO [Vapor Hydrogen Peroxide, hydrogen peroxide]",PRP^SC Detected,"prion protein (PRP^SC); 25° C., 1.7 mg/L, 3 hours exposure, atmospheric pressure",No
same,PRP^SC Detected,"prion protein (PRP^SC); 30° C., 2.2 mg/L, vacuum conditions, six pulses of vapor",No
same,PRP^SC Detected,"prion protein (PRP^SC); 50° C., 7.0 mg/L, vacuum conditions, three pulses of vapor",No
same,destruction of the harmful form of the prion protein,"prion protein (PRP^SC); summary of Table 7, no precleaning step",effective at destruction of the harmful form of the prion protein
same,log reduction in IFDO,IFDO organisms,six
same,number of colonies developed from IFDO remaining on the vacuum treated samples,IFDO organisms,less than 1 log
same,breakdown of protein (gel electrophoresis),BSA protein,effectively destroys proteins
same,log reduction in IFDO,[1],six
same,number of colonies developed on the vacuum treated samples,[1],less than 1 log
same,deactivating the prion model (IFDO): vacuum pulses versus atmospheric conditions,"[1]; FIG. 9, atmospheric 1.5 mg/l 30° C. or 3 mg/l 40° C., 15 minutes",more effective
